Here are results for 77 sequences from the supplement of paper PMC11208160.
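Further: IS621 recombinase and bridge RNA in Escherichia coli cells.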

A short description of the data set: recombinant barcode read abundance after kanamycin selection (control-corrected) (log10(CPM+1)); higher = more efficient recombination; sequences stand for … in AGTGCAGAGAAAATCGGCCAGTTTTCTCTGCCTGCAGTCCGCATGCCGT…AGATTTATGCAGCGGACTGCCTTTCTCCCAAAGTGATAAACCGGACAGTATCATGGACCGGTTTTCCCGGTAATCCGTATTTGCAAGGTTGGTTTCACT; site = the 11-nt target. An outline of the steps:
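Recombination efficiency draws on barcodes counted at recombinant junctions in a pooled E. coli screen of targets paired with IS621 bridge RNA target-binding loops. The counts were converted to counts per million, averaged and corrected against the chloramphenicol/ampicillin LB agar control, then reported as log10(CPM+1). Selection plates held chloramphenicol/ampicillin/kanamycin with 0.1 mM IPTG, with two replicates per condition.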
In the case of “AGGGAGACTTGGGTTCTAACCTGTTGCCA (site AGGAAGACTTG)”, the “recombinant barcode read abundance (log10)” value was determined as 1.63. As to “AGGGAGACTTGGGTTCTAACCTGTTGCCA (site AGGCAGACTTG)”, the “recombinant barcode read abundance (log10)” value stood at 0.0382. For “AGGGAGACTTGGGTTCTAACCTGTTGCCA (site AGGGAGACTTG)”, the “recombinant barcode read abundance (log10)” value stood at 2.49. Next, “AGGGAGACTTGGGTTCTAACCTGTTGCCA (site AGGTAGACTTG)”: 0.0182; “AGGGAGACTTGGGTTCTAACCTGTTGCTT (site AGGGAGACTAA)”: 2.39; “AGGGAGACTTGGGTTCTAACCTGTTGCTT (site AGGGATACTAA)”: 0.25. For “AGGGCCTCTTGGGTTCTAACCTGTTGCAG (site AGGGCCTCTCT)”, the “recombinant barcode read abundance (log10)” value worked out at 2.73. Regarding “AGGGCCTCTTGGGTTCTAACCTGTTGCAG (site GGGGCCTCTTT)”, the “recombinant barcode read abundance (log10)” value worked out at 0.118. The same measure for “AGGGCGCCTTGGGTTCTAACCTGTTGCTT (site AGGGCGCCTAA)”: 1.18; for “AGGGCGCCTTGGGTTCTAACCTGTTGCTT (site CATTTAGCTCC)”: 0.822. Next, “AGGGGAGCTTGGGTTCTAACCTGTTGCCT (site AGGGAAGCTAG)”: 1.12; “AGGGGAGCTTGGGTTCTAACCTGTTGCCT (site AGGGCAGCTAG)”: 0.109; “AGGGGAGCTTGGGTTCTAACCTGTTGCCT (site AGGGGAGCTAG)”: 1.61. The same measure for “AGGGGAGCTTGGGTTCTAACCTGTTGCCT (site AGGGTAGCTAG)”: 0.315; for “AGGTAGACTTGGGTTCTAACCTGTTGCTA (site AGGTAGACTTA)”: 2.44. For the sequence “AGGTAGACTTGGGTTCTAACCTGTTGCTA (site GGGTACACTTA)”, the “recombinant barcode read abundance (log10)” value worked out at 0.303.

Take “AGGTCACCTTGGGTTCTAACCTGTTGCAT (site AGGTCACCTAA)”: the “recombinant barcode read abundance (log10)” value amounted to 0.129.

Turning to “AGGTCACCTTGGGTTCTAACCTGTTGCAT (site AGGTCACCTAC)”, the “recombinant barcode read abundance (log10)” value amounted to 0.62.

On to “AGGTCACCTTGGGTTCTAACCTGTTGCAT (site AGGTCACCTAG)”, for which the “recombinant barcode read abundance (log10)” value is 0.128. Next, “AGGTCACCTTGGGTTCTAACCTGTTGCAT (site AGGTCACCTAT)”: 2.12; “AGGTCCTCTTGGGTTCTAACCTGTTGCTT (site AGGTCCTCTAA)”: 1.13; “AGGTCCTCTTGGGTTCTAACCTGTTGCTT (site AGGTCCTCTAC)”: 0.715. Next, “AGGTCCTCTTGGGTTCTAACCTGTTGCTT (site AGGTCCTCTAG)”: 0.954.

Turning to “AGGTCCTCTTGGGTTCTAACCTGTTGCTT (site AGGTCCTCTAT)”, the “recombinant barcode read abundance (log10)” value worked out at 1.2. With “AGGTCGGCTTGGGTTCTAACCTGTTGCCT (site AGATCGGCTAG)”, the “recombinant barcode read abundance (log10)” value was 0.329.

Take “AGGTCGGCTTGGGTTCTAACCTGTTGCCT (site AGGTCGGCTAG)”: the “recombinant barcode read abundance (log10)” value was determined as 1.24. Regarding “AGGTCGTCTTGGGTTCTAACCTGTTGCCT (site AAGTCGTCTAG)”, the “recombinant barcode read abundance (log10)” value turned out to be 0. The same measure for “AGGTCGTCTTGGGTTCTAACCTGTTGCCT (site ACGTCGTCTAG)”: 0.146; for “AGGTCGTCTTGGGTTCTAACCTGTTGCCT (site AGGTCGTCTAG)”: 1.74; for “AGGTCGTCTTGGGTTCTAACCTGTTGCCT (site ATGTCGTCTAG)”: 0.0512. Take “AGGTGCCCTTGGGTTCTAACCTGTTGCCG (site AAGTGCTCTCG)”: the “recombinant barcode read abundance (log10)” value was determined as 0.235. Next, “AGGTGCCCTTGGGTTCTAACCTGTTGCCG (site AGGTGCCCTCG)”: 1.15; “AGGTGTTCTTGGGTTCTAACCTGTTGCCT (site AGGTGTTCTAG)”: 0.716; “AGGTGTTCTTGGGTTCTAACCTGTTGCCT (site ATGCGTTCTAG)”: 0.018.

Consider “AGTAAGACTTGGGTTCTAACCTGTTGCCT (site AGTAAGACTAA)”, for which the “recombinant barcode read abundance (log10)” value worked out at 0.132. The same measure for “AGTAAGACTTGGGTTCTAACCTGTTGCCT (site AGTAAGACTAC)”: 0.16; for “AGTAAGACTTGGGTTCTAACCTGTTGCCT (site AGTAAGACTAG)”: 1.69; for “AGTAAGACTTGGGTTCTAACCTGTTGCCT (site AGTAAGACTAT)”: 0.2. Next, “AGTAAGACTTGGGTTCTAACCTGTTGCTA (site ACTAAGACTCA)”: 0.154; “AGTAAGACTTGGGTTCTAACCTGTTGCTA (site AGTAAGACTTA)”: 1.23; “AGTAAGTCTTGGGTTCTAACCTGTTGCCT (site AATAAGTCTAG)”: 0.0805.

For the sequence “AGTAAGTCTTGGGTTCTAACCTGTTGCCT (site ACTAAGTCTAG)”, the “recombinant barcode read abundance (log10)” value is 0.186.

On to “AGTAAGTCTTGGGTTCTAACCTGTTGCCT (site AGTAAGTCTAG)”, for which the “recombinant barcode read abundance (log10)” value is 0.61. Next, “AGTAAGTCTTGGGTTCTAACCTGTTGCCT (site ATTAAGTCTAG)”: 0.0108; “AGTAATTCTTGGGTTCTAACCTGTTGCCT (site AGAAATTCTAG)”: 0.0418.

Consider “AGTAATTCTTGGGTTCTAACCTGTTGCCT (site AGCAATTCTAG)”, for which the “recombinant barcode read abundance (log10)” value turned out to be 0.0536. Consider “AGTAATTCTTGGGTTCTAACCTGTTGCCT (site AGGAATTCTAG)”, for which the “recombinant barcode read abundance (log10)” value was found to be 0.0166. The same measure for “AGTAATTCTTGGGTTCTAACCTGTTGCCT (site AGTAATTCTAG)”: 0.454. The same measure for “AGTACCTCTTGGGTTCTAACCTGTTGCCT (site AATACCTCTAG)”: 0.192; for “AGTACCTCTTGGGTTCTAACCTGTTGCCT (site ACTACCTCTAG)”: 0.283. As for “AGTACCTCTTGGGTTCTAACCTGTTGCCT (site AGTACCTCTAG)”, the “recombinant barcode read abundance (log10)” value is 0.941.

With “AGTACCTCTTGGGTTCTAACCTGTTGCCT (site ATTACCTCTAG)”, the “recombinant barcode read abundance (log10)” value was determined as 0.0826. With “AGTAGACCTTGGGTTCTAACCTGTTGCTT (site AGTAGACCTAA)”, the “recombinant barcode read abundance (log10)” value stood at 0.828. The same measure for “AGTAGACCTTGGGTTCTAACCTGTTGCTT (site AGTATACCTCA)”: 0.0353; for “AGTATACCTTGGGTTCTAACCTGTTGCTG (site AGTAGACCTAA)”: 0.178. The same measure for “AGTATACCTTGGGTTCTAACCTGTTGCTG (site AGTATACCTCA)”: 1.31; for “AGTCAGACTTGGGTTCTAACCTGTTGCAC (site AGTCAGACTGT)”: 1.19; for “AGTCAGACTTGGGTTCTAACCTGTTGCAC (site CTAAGCGCTAG)”: 0.396.

As for “AGTCAGCCTTGGGTTCTAACCTGTTGCCT (site AGTAAGCCTAG)”, the “recombinant barcode read abundance (log10)” value was 0.0129.

Turning to “AGTCAGCCTTGGGTTCTAACCTGTTGCCT (site AGTCAGCCTAG)”, the “recombinant barcode read abundance (log10)” value came out at 0.749.

Turning to “AGTCAGCCTTGGGTTCTAACCTGTTGCCT (site AGTGAGCCTAG)”, the “recombinant barcode read abundance (log10)” value was 0.318. The same measure for “AGTCAGCCTTGGGTTCTAACCTGTTGCCT (site AGTTAGCCTAG)”: 0.133; for “AGTCAGTCTTGGGTTCTAACCTGTTGCCA (site AGTCAGTCTTG)”: 0.0748; for “AGTCAGTCTTGGGTTCTAACCTGTTGCCA (site AGTTAGTCTTG)”: 0.121. Next, “AGTCATACTTGGGTTCTAACCTGTTGCAT (site AGTCATACTAT)”: 0.356; “AGTCATACTTGGGTTCTAACCTGTTGCAT (site AGTCATCCTAG)”: 0.0486.

For “AGTCATACTTGGGTTCTAACCTGTTGCCA (site AGTCATACTTG)”, the “recombinant barcode read abundance (log10)” value came to 0.355. Turning to “AGTCATACTTGGGTTCTAACCTGTTGCCA (site GACGTGTCTAC)”, the “recombinant barcode read abundance (log10)” value was 0.0524.

For “AGTCCTTCTTGGGTTCTAACCTGTTGCAT (site AGTCCTTCTAT)”, the “recombinant barcode read abundance (log10)” value was found to be 0.878.

With “AGTCCTTCTTGGGTTCTAACCTGTTGCAT (site CGTCCTTCTAG)”, the “recombinant barcode read abundance (log10)” value worked out at 0.0721.

Take “AGTCTACCTTGGGTTCTAACCTGTTGCCT (site AGTCTACCTAG)”: the “recombinant barcode read abundance (log10)” value stood at 1.23.

For “AGTCTACCTTGGGTTCTAACCTGTTGCCT (site CGTCTACCTAG)”, the “recombinant barcode read abundance (log10)” value is 0.0985. Consider “AGTCTAGCTTGGGTTCTAACCTGTTGCCG (site AGTCTAGCTAG)”, for which the “recombinant barcode read abundance (log10)” value turned out to be 0.083. On to “AGTCTAGCTTGGGTTCTAACCTGTTGCCG (site AGTCTAGCTCG)”, for which the “recombinant barcode read abundance (log10)” value was found to be 0.67. The same measure for “AGTCTAGCTTGGGTTCTAACCTGTTGCCG (site AGTCTAGCTGG)”: 0.0274. The same measure for “AGTCTAGCTTGGGTTCTAACCTGTTGCCG (site AGTCTAGCTTG)”: 0.641; for “AGTCTCCCTTGGGTTCTAACCTGTTGCCT (site AGACTCCCTAG)”: 0.372.
